Results on 6 compounds are retold here after patent publication US20030171398A1, “Food compositions for reducing insulin resistance” (Unilever Patent Holdings BV, priority 2001, published 2003).

The subject of test [1] is Human skeletal muscle cells (SMCs). As to the kind of experiment: Glucose uptake assay in human skeletal muscle cells ([3H]2-deoxyglucose). The class given is cell-based. How it is done: Human skeletal muscle cells (SMCs) were obtained from TCS 2000 Ltd. Cells were seeded into 12-well plates at a density of 3×10^4 cells/well and then grown and differentiated as instructed by TCS. Differentiated human SMCs were incubated, for 32 hours at 37° C./5% CO2, in differentiation media (supplied by TCS) supplemented with an appropriate amount of agent or vehicle. Media was then changed to serum free media (MEM-alpha media, 2 mM glutamine, 100 iu/ml penicillin and 100 μg/ml streptomycin), supplemented as before, and the cells incubated for a further 16 hours.
Cells were then washed 3×with Krebs Ringer Phosphate (KRP) buffer [136 mM NaCl, 4.7 mM KCl, 1.25 mM CaCl2, 1.25 mM MgSO4, 10 mM sodium phosphate buffer, pH 7.4] and incubated in KRP (0.5 ml/well) for 30 minutes at 37° C./5% CO2. After 30 minutes incubation the glucose uptake assay was initiated by addition of 25 μl KRP containing 5 μCi [^3H]2-deoxyglucose and 1 mM deoxyglucose. After 10 minutes the reaction was terminated by washing the cells 3×with ice-cold PBS. Cells were then solublised with 125 μl/well of 1% Triton X-100 for 20 minutes at 37° C. Radioactive incorporation was measured by scintillation counting. 100 μl of each sample was analysed.

The next test has as its target T1, human PPARγ1 (Homo sapiens, UniProt P37231).
T1 construct: expressed in transfected cells; host or cells: cos-7 cells (ECACC No. 87021302)
T1 sequence (P37231 1-477 isoform P37231-2): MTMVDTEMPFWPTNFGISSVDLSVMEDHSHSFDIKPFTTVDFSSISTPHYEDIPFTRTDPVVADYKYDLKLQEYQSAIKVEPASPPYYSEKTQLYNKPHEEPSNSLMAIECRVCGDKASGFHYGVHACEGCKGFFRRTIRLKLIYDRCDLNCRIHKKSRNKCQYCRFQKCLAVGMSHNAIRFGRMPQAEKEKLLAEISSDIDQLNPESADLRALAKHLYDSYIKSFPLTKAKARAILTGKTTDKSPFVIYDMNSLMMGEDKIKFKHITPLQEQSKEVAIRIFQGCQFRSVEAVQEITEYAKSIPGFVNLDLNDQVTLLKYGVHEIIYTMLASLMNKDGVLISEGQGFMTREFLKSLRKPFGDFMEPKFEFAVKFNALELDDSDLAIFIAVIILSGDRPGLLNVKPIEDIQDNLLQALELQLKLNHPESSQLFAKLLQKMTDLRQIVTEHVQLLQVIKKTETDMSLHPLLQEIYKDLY
T1 sequence (P19793 1-462 partner): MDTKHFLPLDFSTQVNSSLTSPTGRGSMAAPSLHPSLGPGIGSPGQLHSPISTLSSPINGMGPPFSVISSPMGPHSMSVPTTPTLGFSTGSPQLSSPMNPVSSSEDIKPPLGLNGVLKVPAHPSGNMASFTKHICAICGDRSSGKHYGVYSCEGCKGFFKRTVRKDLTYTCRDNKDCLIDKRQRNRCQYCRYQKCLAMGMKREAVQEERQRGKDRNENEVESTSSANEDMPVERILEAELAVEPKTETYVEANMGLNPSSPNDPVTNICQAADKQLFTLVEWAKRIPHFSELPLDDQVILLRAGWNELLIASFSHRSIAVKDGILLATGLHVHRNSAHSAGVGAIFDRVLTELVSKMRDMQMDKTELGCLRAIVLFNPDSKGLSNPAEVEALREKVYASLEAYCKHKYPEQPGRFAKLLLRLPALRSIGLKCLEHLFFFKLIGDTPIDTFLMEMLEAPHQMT
Put plainly: PPARgamma reporter gene assay (luciferase) in transfected cos-7 cells. The class given is cell-based. As to the method: PPARgamma receptor activity is determined by a suitable reporter gene assay. Preferably the reporter gene assay used comprises the transcription induction of a luciferase gene. Levels of firefly luciferase (normalised against the renilla luciferase control) provide a measure of reporter gene activity which in turn reflects the level of activation.
This assay is based on that described by Kliewer et al (Nature 358 771-774 1992). In brief, cos-7 cells (ECACC No. 87021302) were seeded in 24-well plates at a density of 0.325×10^5 cells/well. Cells were grown overnight at 37° C./5% CO2 in DMEM containing 10% FCS, 2 mM L-glutamine, 100 iu/ml penicillin and 100 µg/ml streptomycin. Cells were washed with transfection media (DMEM containing 2 mM L-glutamine) then transiently transfected with 4 plasmids: a PPAR-responsive firefly luciferase reporter gene (pPPRE3TK-luc); mammalian expression plasmids (pcDNA3/hPPARγ1 and pRSV/hRXRα) containing human PPARγ1 and RXRα cDNAs respectively and a control plasmid (PRLTK, Promega) which constitutatively expresses the renilla luciferase gene. Transfection was performed using Lipofectamine (Gibco Brl) as directed by the manufacturers. Transfected cells were incubated for 6 h at 37° C./5% CO2 and then for a further 46 hours in the presence or absence of ligand. After 46 hours cell lysates were prepared and the level of firefly and renilla luciferase determined using the Dual luciferase assay system (Promega) and a MLX microtitre plate luminometer (Dynex). The level of firefly luciferase (normalised against the renilla luciferase control) provides a measure of reporter gene activity. This in turn reflect the level of PPARγ activation.
A double-stranded PPAR-binding site was prepared using the ‘Klenow fill-in’ technique. A 113 bp oligonucleotide (PPRE1/3) containing a triplet of PPREs and appropriate restriction endonuclease sites was designed. PPRE1/3 and a 20 bp oligonucleotide (PPRE1/3R) complementary to the 3′ region of PPRE1/3 were synthesised.
In a final volume of 20 μl 2 μg of PPRE1/3R was annealed to 2 μg of PPRE1/3 by boiling for 5 minutes and then cooling slowly to room temperature. Annealed PPRE1/3R was used to prime second-strand DNA synthesis. A 30 μl reaction mix containing 20 μl annealed DNA, 1.5 μl 2 mM dNTPs, 1×Klenow Buffer and 5 units DNA Polymerase I (Klenow fragment) was incubated for 1 hour at 37° C. and then 10 minutes at 75° C. A 5 μl sample of the synthesised product was analysed on a 3% agarose gel. The remaining product was purified by ethanol precipitation and resuspended in sterile water. The double-stranded PPAR-binding site (insert) was digested with MluI and BgllI for 1 hour at 37° C. and then purified by ethanol precipitation. 1 μg of the vector pNF-κB-luc (Clontech) was digested with MluI and BgllI for 1 hour at 37° C. and then analysed on a 1% agarose gel Digested DNA was purified from the gel using a Qiaquick Gel Extraction Kit (Qiagen). Digested vector and insert DNA were incubated for 4 hours at room temperature in a volume of 15 μl containing 1×ligase buffer and 5 units T4 DNA ligase. The full ligation reaction was used to transform competant E.coli JM109 cells (Promega).

The mark [2] stands for this setting: 1.25 μg/ml, purified components, Table 8.
Where [3] appears, read: 2.5 μg/ml, purified components, Table 8.
[4] abbreviates: 5 μg/ml, purified components, Table 8.

For the compound `CC1(COc2ccc(CC3SC(=O)NC3=O)cc2)CCCCC1` (centres unmarked) [Ciglitizone], the “[3H] 2-deoxyglucose uptake (Fold-induction relative to vehicle) Mean” value is recorded as 1.3 Fold-induction in test [1] (2.5 uM) and 3.3 Fold-induction in test [1] (5 uM).

For `C/C(=C\CC/C(C)=C/CCC1[C@](C)(O)CC[C@H]2C(C)(C)C(=O)CC[C@]12C)CC/C=C(\C)C(=O)O` (stereo partly drawn) [Commipheric acid, 13-(decahydro-2-hydroxy-2,5,5,8a-tetramethyl-6-oxo-1-naphthalenyl)-2,6,10-trimethyl-, [1R-[1α(2E,6E,10E),2β,4aβ,8aα]]-2,6,10-tridecatrienoic acid], the “Activation of PPARgamma in the reporter gene assay (in words)” value (from here on “Activation of PPARgamma”) at human PPARγ1 is on record as “able to activate PPARgamma”. Further, the “Reporter gene activity (Fold-induction relative to the vehicle) Mean” value on human PPARγ1 (setting [2]) is reported as 2.56 Fold-induction; on human PPARγ1 (setting [3]), 3.40 Fold-induction; on human PPARγ1 (setting [4]) it was 8.01 Fold-induction.

For the compound `C/C(=C\CC/C(C)=C/CC/C(C)=C/CC[C@@H]1[C@@]2(C)CCC(=O)C(C)(C)[C@@H]2CC[C@@]1(C)O)CO` [Commipherol, Octahydro-6-hydroxy-5-(13-hydroxy-4,8,12-trimethyl-3,7,11-tridecatrienyl)-1,1,4a,6-tetramethyl-, [4aS-[4aα,5α(3E,7E,11E),6β,8aβ]]-2(1H)-naphthalenone], the “Activation of PPARgamma” value on human PPARγ1 was “activate PPARgamma to a lesser degree”. Also, the “Reporter gene activity (Fold-induction relative to the vehicle) Mean” value on human PPARγ1 (setting [2]) was 3.41 Fold-induction; at human PPARγ1 (setting [3]), 4.97 Fold-induction.

Take `C/C=C1/C(=O)C[C@H]2[C@@H]3CCC4=CC(=O)CC[C@]4(C)[C@H]3CC[C@]12C` [E-guggulsterone, reference compound]: the “Activation of PPARgamma” value on human PPARγ1 is listed as “neither the E-nor the Z-form of guggulsterone can activate PPARgamma”. Besides, the “Reporter gene activity (Fold-induction relative to the vehicle) Mean” value on human PPARγ1 (5 μg/ml, Table 9) was 0.4 Fold-induction.

Consider `C/C(=C\CC/C(C)=C/CC/C(C)=C/CCC1C(C)(O)CCC2C(C)(C)C(O)CCC12C)CO` [Myrrhanol A, Decahydro-5-[(3E,7E,11E)-13-hydroxy-4,8,12-trimethyl-3,7,11-tridecatrienyl]-1,1,4a,6-tetramethyl-, (2S,4aS,5R,6R,8aS)-2,6-naphthalenediol], for which, on human PPARγ1, the “Activation of PPARgamma” value is “activate PPARgamma to a lesser degree”. For the same compound, the results for the “Reporter gene activity (Fold-induction relative to the vehicle) Mean” value at human PPARγ1 (setting [2]), at human PPARγ1 (setting [3]) and at human PPARγ1 (setting [4]) were 1.14 Fold-induction, 1.74 Fold-induction and 3.87 Fold-induction, respectively.

On to `C/C=C1\C(=O)C[C@H]2[C@@H]3CCC4=CC(=O)CC[C@]4(C)[C@H]3CC[C@]12C` [Z-guggulsterone, reference compound], for which the “Activation of PPARgamma” value on human PPARγ1 is given as “neither the E-nor the Z-form of guggulsterone can activate PPARgamma”. On human PPARγ1 (5 μg/ml, Table 9), the “Reporter gene activity (Fold-induction relative to the vehicle) Mean” value is recorded as 0.5 Fold-induction.
